The values that follow are results of earlier work, collected in patent US20160136091A1, “Orally Disintegrating Tablet” (SANWA KAGAKU KENKYUSHO CO., LTD., priority 2013, published 2016).

For this data set the following is noted: 20+5° C.

As to `OCCN1C[C@H](O)[C@@H](O)[C@H](O)[C@H]1CO` [miglitol], the “Amount of water required to dissolve 1 g” value is “less than 10 mL”. As to `Cn1c(=O)c2[nH]cnc2n(C)c1=O` [theophylline], the “Amount of water required to dissolve 1 g” value is reported as “less than 1,000 mL”.
